Laboratory results reported in US20020065212A1, “METHODS OF TREATING DISEASE USING SERTOLI CELLS AND ALLOGRAFTS OR XENOGRAFTS” (priority 1996, published 2002).

Columns and labels:
[1] = tested on: spontaneously diabetic BB/Wor dp rats; test: Pancreatic and testicular insulin and glucagon content; assay type: in vivo, rat
[2] = tested on: spontaneously diabetic BB/Wor dp rats; test: Metabolic parameters, serum insulin and glucagon after intratesticular islet grafts; assay type: in vivo, rat
Source text: This study examined insulin and glucagon secretory patterns in spontaneously diabetic bb/Wor dp rats transplanted with abdominal, intratesticular, islet grafts. Diabetic, BB/Wor dp, rats received intratesticular islet grafts from MHC-compatible BB/Wor dr rats and no immunosuppression. After a period of 74±15 days, of normoglycemia, three different groups (controls; BB/Wor dp, transplanted; and BB/Wor dp, insulin treated) were given the following challenges; (1) an oral glucose tolerance test (OGTT), (2) a single oral dose of glipizide, followed by an OGTT, and (3) arginine, by intravenous infusion. The results of this study are shown in Tables 1 and 2 and FIGS. 5 and 6.

For insulin, the “Pancreatic Glucagon content” value ([1]; pancreas) was 6.9 ± 0.80 ng/mg, the “Pancreatic Insulin content” value ([1]; pancreas) was 0.76 ± 0.12 µg/g and the “Testicular Glucagon content” value ([1]; testes fractions) was 0.0 ng/mg. The “Testicular Insulin content” value ([1]; testes fractions) was 0.0 µg/g, the “Plasma Glucose” value ([2]; After 2.5 months) was 350 ± 40 mg/dL and the “Plasma Glucose” value ([2]; Prior to therapy) was 510 ± 13+ mg/dl. For the same substance, the “Fasting Plasma Glucagon” value ([2]; rat, in vivo) was 47.4 ± 4.9 pg/mL and the Weight gain ([2]; rat, in vivo) was 48 ± 14$ g.
